Reference: paper PMC5812813 (Journal of the American Chemical Society, 2018)
Read-outs that look alike come from different tables or passages of the source.

What was measured:
CYP2C8 [1] = target: T1, CYP2C8 (Homo sapiens, UniProt P10632); settings: cited from earlier work
T1 sequence (P10632 1-490): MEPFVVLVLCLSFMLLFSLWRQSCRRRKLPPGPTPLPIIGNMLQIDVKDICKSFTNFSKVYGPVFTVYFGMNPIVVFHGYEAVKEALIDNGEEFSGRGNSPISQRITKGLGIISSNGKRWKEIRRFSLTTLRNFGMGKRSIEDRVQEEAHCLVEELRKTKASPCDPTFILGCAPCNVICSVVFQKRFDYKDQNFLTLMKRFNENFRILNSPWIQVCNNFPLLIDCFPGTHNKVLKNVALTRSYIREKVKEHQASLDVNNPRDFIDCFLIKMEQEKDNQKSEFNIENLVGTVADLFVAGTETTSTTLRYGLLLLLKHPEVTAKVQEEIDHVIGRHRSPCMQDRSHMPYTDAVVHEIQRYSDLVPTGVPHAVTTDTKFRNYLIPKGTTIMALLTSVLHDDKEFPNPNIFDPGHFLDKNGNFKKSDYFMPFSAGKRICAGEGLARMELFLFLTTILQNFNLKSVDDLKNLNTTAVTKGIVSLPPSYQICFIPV

CYP3A [2] = settings: cited from earlier work
[3] = test system: hippocampus glucose metabolism; settings: previously tested in similar tests; cited from earlier work
CYP2D6 [4] = target: T2, CYP2D6 (Homo sapiens, UniProt P10635); settings: cited from earlier work
T2 sequence (P10635 whole entry): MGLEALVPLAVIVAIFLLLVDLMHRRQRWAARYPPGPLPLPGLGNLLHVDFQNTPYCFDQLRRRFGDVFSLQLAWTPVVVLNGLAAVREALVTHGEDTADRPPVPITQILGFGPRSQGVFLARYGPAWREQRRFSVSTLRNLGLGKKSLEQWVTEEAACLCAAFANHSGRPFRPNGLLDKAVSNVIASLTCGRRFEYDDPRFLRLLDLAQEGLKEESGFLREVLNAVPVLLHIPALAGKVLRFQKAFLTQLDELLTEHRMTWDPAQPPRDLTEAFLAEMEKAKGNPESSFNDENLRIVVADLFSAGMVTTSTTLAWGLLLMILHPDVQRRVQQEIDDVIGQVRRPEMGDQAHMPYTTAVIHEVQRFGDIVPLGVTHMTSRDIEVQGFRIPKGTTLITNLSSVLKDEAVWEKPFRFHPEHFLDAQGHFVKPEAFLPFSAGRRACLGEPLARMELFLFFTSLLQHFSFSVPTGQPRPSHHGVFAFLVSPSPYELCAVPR

[5] = test system: alanine aminotransferase (Ala-AT); settings: cited from earlier work
infantile spasms = settings: cited from earlier work
CYP2C19 [6] = target: T3, CYP2C19 (Homo sapiens, UniProt P33261); settings: cited from earlier work
T3 sequence (P33261 whole entry): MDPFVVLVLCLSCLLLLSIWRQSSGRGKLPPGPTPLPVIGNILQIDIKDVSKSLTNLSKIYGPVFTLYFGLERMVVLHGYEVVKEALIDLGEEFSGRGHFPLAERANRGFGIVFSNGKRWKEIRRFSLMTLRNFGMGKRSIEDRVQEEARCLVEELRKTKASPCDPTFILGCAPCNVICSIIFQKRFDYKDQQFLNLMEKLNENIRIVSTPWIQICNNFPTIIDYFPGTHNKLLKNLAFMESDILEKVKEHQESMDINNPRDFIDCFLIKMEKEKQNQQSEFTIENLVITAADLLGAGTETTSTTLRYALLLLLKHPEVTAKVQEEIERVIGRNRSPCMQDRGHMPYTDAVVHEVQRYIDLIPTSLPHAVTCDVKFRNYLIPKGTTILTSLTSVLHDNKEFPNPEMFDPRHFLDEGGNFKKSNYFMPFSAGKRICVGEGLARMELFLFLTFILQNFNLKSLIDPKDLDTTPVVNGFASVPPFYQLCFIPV

hERG channel [7] = target: T4, hERG channel (Homo sapiens, UniProt Q12809); settings: cited from earlier work
T4 sequence (Q12809 whole entry): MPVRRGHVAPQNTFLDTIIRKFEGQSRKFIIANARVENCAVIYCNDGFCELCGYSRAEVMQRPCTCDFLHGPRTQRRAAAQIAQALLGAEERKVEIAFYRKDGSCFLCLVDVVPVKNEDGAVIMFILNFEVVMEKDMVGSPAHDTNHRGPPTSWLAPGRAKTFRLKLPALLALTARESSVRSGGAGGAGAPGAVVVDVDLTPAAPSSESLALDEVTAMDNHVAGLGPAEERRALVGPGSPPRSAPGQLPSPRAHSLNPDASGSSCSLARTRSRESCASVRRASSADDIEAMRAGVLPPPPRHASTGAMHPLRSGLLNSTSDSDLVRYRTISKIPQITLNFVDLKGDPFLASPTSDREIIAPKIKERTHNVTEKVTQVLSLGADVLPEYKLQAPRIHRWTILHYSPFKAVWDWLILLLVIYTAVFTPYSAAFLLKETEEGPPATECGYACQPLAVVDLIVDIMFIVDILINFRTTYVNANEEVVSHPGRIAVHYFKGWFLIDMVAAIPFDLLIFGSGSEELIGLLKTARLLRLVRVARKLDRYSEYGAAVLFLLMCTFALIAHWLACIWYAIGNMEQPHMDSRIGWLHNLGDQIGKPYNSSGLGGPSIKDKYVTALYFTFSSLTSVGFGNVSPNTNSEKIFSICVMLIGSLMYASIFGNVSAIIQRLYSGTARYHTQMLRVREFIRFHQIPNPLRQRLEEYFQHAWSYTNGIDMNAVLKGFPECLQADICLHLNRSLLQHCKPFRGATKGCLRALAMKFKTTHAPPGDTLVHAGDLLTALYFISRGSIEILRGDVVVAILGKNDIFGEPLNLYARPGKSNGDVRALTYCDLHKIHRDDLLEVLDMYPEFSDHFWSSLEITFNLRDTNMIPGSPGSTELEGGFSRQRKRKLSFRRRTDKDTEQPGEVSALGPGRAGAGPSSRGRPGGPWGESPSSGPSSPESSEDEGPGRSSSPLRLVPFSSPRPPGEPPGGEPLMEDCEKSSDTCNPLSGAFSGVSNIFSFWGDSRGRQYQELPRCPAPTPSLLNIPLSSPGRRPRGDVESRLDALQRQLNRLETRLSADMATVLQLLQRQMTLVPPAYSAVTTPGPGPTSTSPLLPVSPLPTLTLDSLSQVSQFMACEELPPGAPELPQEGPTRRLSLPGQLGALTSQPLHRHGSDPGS

CYP2B6 [8] = target: T5, CYP2B6 (Homo sapiens, UniProt P20813); settings: cited from earlier work
T5 sequence (P20813 1-491): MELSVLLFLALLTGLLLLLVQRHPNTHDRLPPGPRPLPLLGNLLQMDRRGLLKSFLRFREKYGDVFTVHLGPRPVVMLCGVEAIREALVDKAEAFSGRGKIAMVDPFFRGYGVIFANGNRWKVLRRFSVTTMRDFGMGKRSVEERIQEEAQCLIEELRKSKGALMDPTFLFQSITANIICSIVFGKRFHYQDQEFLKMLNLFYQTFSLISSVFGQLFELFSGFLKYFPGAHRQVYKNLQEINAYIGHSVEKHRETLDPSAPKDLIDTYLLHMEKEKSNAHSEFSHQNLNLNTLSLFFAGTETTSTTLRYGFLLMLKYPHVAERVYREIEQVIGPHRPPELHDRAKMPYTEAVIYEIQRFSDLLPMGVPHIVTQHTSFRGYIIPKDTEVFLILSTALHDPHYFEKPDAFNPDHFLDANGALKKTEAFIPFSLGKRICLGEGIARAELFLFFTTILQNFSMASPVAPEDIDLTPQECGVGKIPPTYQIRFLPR

[9] = target: T6, ornithine aminotransferase (OAT) (Homo sapiens, UniProt P04181); settings: cited from earlier work
T6 sequence (P04181 36-439 limits assumed): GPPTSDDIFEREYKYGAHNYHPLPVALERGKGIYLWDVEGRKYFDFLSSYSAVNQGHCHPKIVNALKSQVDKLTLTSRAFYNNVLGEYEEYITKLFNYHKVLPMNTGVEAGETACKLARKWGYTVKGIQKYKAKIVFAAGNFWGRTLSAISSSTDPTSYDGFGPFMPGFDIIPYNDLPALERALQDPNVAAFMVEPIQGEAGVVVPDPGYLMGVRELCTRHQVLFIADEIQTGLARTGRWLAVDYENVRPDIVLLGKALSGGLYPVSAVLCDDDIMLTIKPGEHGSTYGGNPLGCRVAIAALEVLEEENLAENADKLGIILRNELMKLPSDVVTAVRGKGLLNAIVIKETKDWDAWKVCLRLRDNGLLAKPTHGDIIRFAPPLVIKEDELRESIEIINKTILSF

[10] = target: T7, aspartate aminotransferase (Asp-AT) (Sus scrofa, UniProt P00503); settings: cited from earlier work
T7 sequence (P00503 2-413): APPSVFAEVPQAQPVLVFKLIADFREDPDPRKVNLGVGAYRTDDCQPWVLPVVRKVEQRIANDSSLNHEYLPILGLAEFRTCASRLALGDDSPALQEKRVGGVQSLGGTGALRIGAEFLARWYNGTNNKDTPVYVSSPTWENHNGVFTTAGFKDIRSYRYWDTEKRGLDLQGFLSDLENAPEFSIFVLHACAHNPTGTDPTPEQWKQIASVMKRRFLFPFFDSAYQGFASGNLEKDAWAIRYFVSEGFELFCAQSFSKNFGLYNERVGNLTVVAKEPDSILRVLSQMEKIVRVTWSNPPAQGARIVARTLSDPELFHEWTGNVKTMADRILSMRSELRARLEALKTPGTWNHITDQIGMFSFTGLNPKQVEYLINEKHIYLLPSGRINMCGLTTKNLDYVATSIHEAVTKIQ

CYP2C9 [11] = target: T8, CYP2C9 (Homo sapiens, UniProt P11712); settings: cited from earlier work
T8 sequence (P11712 whole entry): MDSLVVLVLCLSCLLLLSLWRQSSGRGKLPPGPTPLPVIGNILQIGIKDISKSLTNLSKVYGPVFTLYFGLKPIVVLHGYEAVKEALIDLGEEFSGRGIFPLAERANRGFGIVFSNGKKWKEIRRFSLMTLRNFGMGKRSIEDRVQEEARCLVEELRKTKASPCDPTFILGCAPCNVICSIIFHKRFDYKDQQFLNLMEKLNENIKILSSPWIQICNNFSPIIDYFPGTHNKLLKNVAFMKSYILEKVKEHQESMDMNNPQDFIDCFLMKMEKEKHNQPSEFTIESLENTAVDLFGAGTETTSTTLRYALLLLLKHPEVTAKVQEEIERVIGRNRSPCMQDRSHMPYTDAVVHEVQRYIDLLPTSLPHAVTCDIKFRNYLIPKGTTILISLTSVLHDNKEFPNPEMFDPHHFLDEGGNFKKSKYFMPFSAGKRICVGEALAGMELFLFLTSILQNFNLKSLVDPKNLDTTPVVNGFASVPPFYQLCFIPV

CYP1A [12] = target: T9, CYP1A (Homo sapiens, UniProt P05177); settings: cited from earlier work
T9 sequence (P05177 1-516): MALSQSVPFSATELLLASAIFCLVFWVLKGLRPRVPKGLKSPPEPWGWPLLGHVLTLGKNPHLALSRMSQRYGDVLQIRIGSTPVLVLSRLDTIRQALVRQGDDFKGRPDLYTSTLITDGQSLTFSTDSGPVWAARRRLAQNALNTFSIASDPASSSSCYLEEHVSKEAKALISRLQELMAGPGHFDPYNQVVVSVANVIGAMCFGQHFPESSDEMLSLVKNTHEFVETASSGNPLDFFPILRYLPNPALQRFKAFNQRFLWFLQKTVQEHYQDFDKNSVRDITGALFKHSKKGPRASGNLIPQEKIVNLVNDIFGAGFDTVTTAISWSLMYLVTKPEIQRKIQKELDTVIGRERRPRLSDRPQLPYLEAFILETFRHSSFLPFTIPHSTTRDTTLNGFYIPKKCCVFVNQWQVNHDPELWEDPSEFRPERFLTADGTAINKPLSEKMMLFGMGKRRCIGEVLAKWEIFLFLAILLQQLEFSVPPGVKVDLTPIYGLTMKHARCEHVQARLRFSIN

[13] = test system: cocaine- or nicotine-induced increases in synaptic dopamine (corpus striatum); type: in vivo, rat
[14] = target: T7, aspartate aminotransferase (Asp-AT); assay: Inhibition of aspartate aminotransferase; type: biochemical
[15] = Ames test for mutagenicity
hERG channel [16] = target: T4, hERG channel; assay: Inhibition of the hERG channel; type: cell-based; settings: at 10 μM
[17] = test system: hippocampus glucose metabolism; assay: microPET 18FDG, cocaine-induced increases in glucose metabolism; type: in vivo, rat; settings: 5 before cocaine, statistical parametric mapping, p < 0.00001
CYP3A [18] = assay: CYP3A inhibition; type: in vitro ADME, human; settings: 10 μM
[19] = Metabolic stability in human liver microsomes; type: in vitro ADME; settings: 1 μM, 90 min assay time, 37 °, LC-MS/MS
CYP2C8 [20] = target: T1, CYP2C8; assay: CYP2C8 inhibition; type: in vitro ADME; settings: 10 μM
[21] = test system: 176 pharmacological targets; assay: Cerep SpectrumScreen; settings: 3 μM
CYP2C19 [22] = target: T3, CYP2C19; assay: CYP2C19 inhibition; type: in vitro ADME; settings: 10 μM
[23] = test system: alanine aminotransferase (Ala-AT); assay: Inhibition of alanine aminotransferase; type: biochemical
CYP2C9 [24] = target: T8, CYP2C9; assay: CYP2C9 inhibition; type: in vitro ADME; settings: 10 μM
[25] = target: T6, ornithine aminotransferase (OAT); assay: Time- and concentration-dependent inhibition of ornithine aminotransferase; type: biochemical
Irwin = assay: Irwin; design: species or system mice; settings: mouse, in vivo, po
CYP2D6 [26] = target: T2, CYP2D6; assay: CYP2D6 inhibition; type: in vitro ADME; settings: 10 μM
CYP1A [27] = target: T9, CYP1A; assay: CYP1A inhibition; type: in vitro ADME; settings: 10 μM
CYP2B6 [28] = target: T5, CYP2B6; assay: CYP2B6 inhibition; type: in vitro ADME; settings: 10 μM
[29] = after long-term administration; cited from earlier work
cocaine addiction = settings: 9-week double-blind trial; cited from earlier work
[30] = 5 0.1 mg/kg prior to cocaine 10 mg/kg
[31] = 5 1.0 mg/kg prior to cocaine 10 mg/kg

N[C@H]1C[C@@H](C(=O)O)CC1=C(F)F [CPP-115, (1S,3S)-3-amino-4-difluoromethylenyl-1-cyclopentanoic acid]
CYP inhibition or induction (CYP2C8 [1]): does not inhibit or induce
CYP inhibition or induction (CYP3A [2]): does not inhibit or induce
block of cocaine-induced hippocampal metabolism [3]: did not completely block
CYP inhibition or induction (CYP2D6 [4]): does not inhibit or induce
inactivation or inhibition of off-target enzyme [5]: not to inactivate or inhibit
doses suppressing spasms, lower than those used for vigabatrin (infantile spasms): over 100 fold
CYP inhibition or induction (CYP2C19 [6]): does not inhibit or induce
inhibition of the activity of the hERG channel (hERG channel [7]): does not inhibit
CYP inhibition or induction (CYP2B6 [8]): does not inhibit or induce
Ki [9]: 116 µM
inactivation or inhibition of off-target enzyme [10]: not to inactivate or inhibit
CYP inhibition or induction (CYP2C9 [11]): does not inhibit or induce
CYP inhibition or induction (CYP1A [12]): does not inhibit or induce

COC(=O)[C@H]1[C@@H](OC(=O)c2ccccc2)C[C@@H]2CC[C@H]1N2C [Cocaine, cocaine, reference compound]
%= (Percent inhibition of cocaine-induced increase in synaptic dopamine) ([13]; cocaine 10 mg/kg alone): −36%
ST-CB/CB ([13]; cocaine 10 mg/kg alone): 2.39 ± 0.21
reduction of [11C]-raclopride binding ([13]; cocaine 10 mg/kg alone): 36%

N[C@H]1C=C(C(=O)O)CC1=C(F)F [Compound 5, (S)-3-amino-4-(difluoromethylenyl)cyclopent-1-ene-1-carboxylic acid]
time-dependent inhibition [14]: does not cause time-dependent inhibition
Ames test for mutagenicity [15]: negative
inhibition of the activity of the hERG channel (hERG channel [16]): does not inhibit
cocaine-induced activation in the hippocampus (18FDG uptake) [17]: no activation in the hippocampus was detected
CYP inhibition or induction (CYP3A [18]): does not inhibit or induce
metabolism in human liver microsomes [19]: No metabolism
CYP inhibition or induction (CYP2C8 [20]): does not inhibit or induce
activity at 176 pharmacological targets [21]: no significant activity
CYP inhibition or induction (CYP2C19 [22]): does not inhibit or induce
time-dependent inhibition [23]: does not cause time-dependent inhibition
IC50 ([23]; reversible inhibition): > 4000 µM
CYP inhibition or induction (CYP2C9 [24]): does not inhibit or induce
reduction of [11C]-raclopride binding ([13]; 5 0.01 mg/kg 30 minutes prior to cocaine): 20%
ST-CB/CB ([13]; 5 0.01 mg/kg 30 minutes prior to cocaine 10 mg/kg): 3.01 ± 0.44
%= (Percent inhibition of cocaine-induced increase in synaptic dopamine) ([13]; 5 0.01 mg/kg prior to cocaine 10 mg/kg): −20%
reduction of [11C]-raclopride binding ([13]; 5 0.1 mg/kg prior to cocaine): 12%
%= (Percent inhibition of cocaine-induced increase in synaptic dopamine) [13, 30]: −12%
ST-CB/CB [13, 30]: 3.31 ± 0.52
change in [11C]-raclopride binding ([13]; 5 1.0 mg/kg prior to cocaine): no significant change
%= (Percent inhibition of cocaine-induced increase in synaptic dopamine) [13, 31]: −5%
ST-CB/CB [13, 31]: 3.56 ± 2.11
reduction of [11C]-raclopride binding ([13]; 5 1.0 mg/kg prior to cocaine (comparable to control)): 5%
change in [11C]-raclopride binding ([13]; 5 1.0 mg/kg prior to nicotine): no significant change
more effective at inhibiting GABA-AT than OAT ([25]; GABA-AT versus OAT): 44 times
efficiency as an inactivator of OAT relative to CPP-115 ([25]; ratio of kinact/KI): 9.0 times
NOAEL (Irwin): 6 mg/kg
CYP inhibition or induction (CYP2D6 [26]): does not inhibit or induce
CYP inhibition or induction (CYP1A [27]): does not inhibit or induce
CYP inhibition or induction (CYP2B6 [28]): does not inhibit or induce

C=CC(N)CCC(=O)O (stereo not drawn) [vigabatrin]
block of cocaine-induced hippocampal metabolism [3]: did not completely block
patients with permanent retinal damage [29]: 25–40%
patients achieving abstinence (cocaine addiction): up to 28%
